Assay results: patent publication US20250059164A1, “IRAK DEGRADERS AND USES THEREOF” (Kymera Therapeutics, Inc., priority 2023, published 2025)

Legend:
IRAK4 = biological target: T1, IRAK4 (Homo sapiens, UniProt Q9NWZ3); assay: IRAK4 MSD degradation in OCI-LY10; assay type: cell-based; conditions: OCI-LY10 cells, 24 hrs, Meso Scale Discovery
T1 construct: endogenous in cells; host or cells: OCI-LY10
T1 sequence (Q9NWZ3 1-460): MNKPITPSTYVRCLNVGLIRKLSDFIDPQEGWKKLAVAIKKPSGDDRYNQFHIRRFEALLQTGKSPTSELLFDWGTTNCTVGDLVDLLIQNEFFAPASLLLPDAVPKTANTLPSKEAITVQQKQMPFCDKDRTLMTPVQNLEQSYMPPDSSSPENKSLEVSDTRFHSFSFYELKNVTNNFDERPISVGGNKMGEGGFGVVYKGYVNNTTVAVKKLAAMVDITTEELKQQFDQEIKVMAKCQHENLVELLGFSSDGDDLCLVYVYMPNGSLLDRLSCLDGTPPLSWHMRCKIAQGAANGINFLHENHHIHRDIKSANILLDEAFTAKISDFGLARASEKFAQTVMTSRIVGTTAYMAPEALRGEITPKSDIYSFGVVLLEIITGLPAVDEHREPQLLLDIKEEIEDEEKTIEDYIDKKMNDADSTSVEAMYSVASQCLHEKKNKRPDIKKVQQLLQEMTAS
Outline: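 OCI-LY10 cells treated 4 to 24 hours at 37° C. with 8-dose 1:3 series, top 1 to 10 μM. IRAK4 in lysates quantified by MSD sandwich immunoassay (mouse capture, rabbit detection, SULFO-TAG anti-rabbit). DC50 from three-parameter logistic fit.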

[1] = Rodent pharmacokinetics (rat PK); assay type: in vivo; conditions: po, dosed intravenously or orally by gavage, plasma, read-out: F % (bioavailability)
Protocol: All studies related to handling, care, and treatment of rats in the study were performed according to the guidelines approved by the Institutional Animal Care and Use Committee (IACUC). All rats had access to food and water ad libitum. Rats were dosed intravenously or orally by gavage. Whole blood was collected from the jugular vein immediately prior to dosing and at 5 (intravenously administered drugs only), 15, and 30 min and 1, 2, 4, 8, and 24 h after drug administration. After sampling, whole blood was centrifuged at 4,000×g for 5 min at 4° C. to obtain plasma.
The letter codes for bioavailability (F %) include: A (≥5%) and B (≤5%).

Row | Compound | DC50 (IRAK4) | bioavailability [1]
1 | CN(C[C@H]1CC[C@H](c2nc3cc(C(C)(C)O)c(NC(=O)c4cncc(C(F)(F)F)c4)cc3s2)CC1)[C@@H]1CCN(c2cccc3c2n(C)c(=O)n3C2CCC(=O)NC2=O)C[C@@H]1F (single isomer, unassigned) [I-161] | < 10 nM | ≥ 5%
2 | CN(C[C@H]1CC[C@H](c2nc3cc(C(C)(C)O)c(NC(=O)c4cncc(C(F)(F)F)c4)cc3s2)CC1)[C@H]1CCN(c2cccc3c2n(C)c(=O)n3C2CCC(=O)NC2=O)C[C@H]1F (single isomer, unassigned) [I-162] | < 10 nM | ≥ 5%
3 | Cn1c(=O)n(C2CCC(=O)NC2=O)c2cccc([C@H]3CCN(C[C@H]4CC[C@H](n5cc6cc(NC(=O)c7cncc(C(F)(F)F)n7)ccc6n5)CC4)CC3(F)F)c21 (single isomer, unassigned) [I-180] | < 10 nM | ≥ 5%
4 | CN(C[C@H]1CC[C@H](c2nc3cc(C(C)(C)O)c(NC(=O)c4cccc(C(F)(F)F)c4)cc3s2)CC1)[C@@H]1CCN(c2cccc3c2n(C)c(=O)n3C2CCC(=O)NC2=O)C[C@@H]1F (single isomer, unassigned) [I-192] | < 10 nM | ≥ 5%
5 | CN(C[C@H]1CC[C@H](c2nc3cc(C(C)(C)O)c(NC(=O)c4cccc(C(F)(F)F)c4)cc3s2)CC1)[C@H]1CCN(c2cccc3c2n(C)c(=O)n3C2CCC(=O)NC2=O)C[C@H]1F (single isomer, unassigned) [I-199] | 10 to 100 nM | ≥ 5%
6 | Cn1c(=O)n(C2CCC(=O)NC2=O)c2cccc([C@H]3CCN(C[C@H]4CC[C@H](n5cc6cc(NC(=O)c7cncc(C(F)(F)F)n7)ncc6n5)CC4)CC3(F)F)c21 (single isomer, unassigned) [I-205] | < 10 nM | ≤ 5%
7 | Cn1c(=O)n(C2CCC(=O)NC2=O)c2cccc([C@@H]3CCN(C[C@H]4CC[C@H](n5cc6cc(NC(=O)c7cncc(C(F)(F)F)n7)ncc6n5)CC4)CC3(F)F)c21 (single isomer, unassigned) [I-206] | 10 to 100 nM | ≥ 5%
8 | Cn1c(=O)n([C@@H]2CCC(=O)NC2=O)c2cccc([C@@H]3CCN(C[C@H]4CC[C@H](n5cc6cc(NC(=O)c7cncc(C(F)(F)F)n7)ccc6n5)CC4)C[C@H]3F)c21 (single isomer, unassigned) [I-208] | < 10 nM | ≤ 5%
9 | Cn1c(=O)n([C@H]2CCC(=O)NC2=O)c2cccc([C@@H]3CCN(C[C@H]4CC[C@H](n5cc6cc(NC(=O)c7cncc(C(F)(F)F)n7)ccc6n5)CC4)C[C@H]3F)c21 (single isomer, unassigned) [I-209] | < 10 nM | ≤ 5%
10 | CN(C[C@H]1CC[C@H](c2cn3cc(NC(=O)c4cncc(C(F)(F)F)n4)ccc3n2)CC1)[C@@H]1CCN(c2cccc3c2n(C)c(=O)n3C2CCC(=O)NC2=O)C[C@@H]1F (single isomer, unassigned) [I-213] | < 10 nM | ≤ 5%
11 | Cn1nc(C2CCC(=O)NC2=O)c2cccc([C@@H]3CCN(C[C@H]4CC[C@H](n5cc6cc(NC(=O)c7cncc(C#N)c7)c(C(C)(C)O)cc6n5)CC4)CC3(F)F)c21 (single isomer, unassigned) [I-222] | < 10 nM | ≥ 5%
12 | Cn1nc(C2CCC(=O)NC2=O)c2cccc([C@H]3CCN(C[C@H]4CC[C@H](n5cc6cc(NC(=O)c7cncc(C#N)c7)c(C(C)(C)O)cc6n5)CC4)CC3(F)F)c21 (single isomer, unassigned) [I-223] | < 10 nM | ≤ 5%
13 | Cn1c(=O)n(C2CCC(=O)NC2=O)c2ccc(F)c([C@@H]3CCN(C[C@H]4CC[C@H](n5cc6cc(NC(=O)c7cncc(C#N)c7)c(C(C)(C)O)cc6n5)CC4)CC3(F)F)c21 (single isomer, unassigned) [I-226] | < 10 nM | ≤ 5%
14 | Cn1c(=O)n(C2CCC(=O)NC2=O)c2cccc([C@@H]3CCN(C[C@H]4CC[C@H](c5nc6cc(C(C)(C)O)c(NC(=O)c7cncc(C#N)c7)cc6s5)CC4)C[C@H]3F)c21 (single isomer, unassigned) [I-229] | < 10 nM | ≤ 5%
15 | CN(C[C@H]1CC[C@H](c2nc3cc(C(C)(C)O)c(NC(=O)c4cccc(C(F)(F)F)n4)cc3s2)CC1)[C@@H]1CCN(c2cccc3c2n(C)c(=O)n3C2CCC(=O)NC2=O)C[C@H]1F (single isomer, unassigned) [I-238] | < 10 nM | ≥ 5%
16 | COc1cc2nn([C@H]3CC[C@H](CN4CC[C@@H](c5cccc6c5n(C)c(=O)n6C5CCC(=O)NC5=O)C(F)(F)C4)CC3)cc2cc1NC(=O)c1cncc(C#N)c1 (single isomer, unassigned) [I-240] | < 10 nM | ≤ 5%

Row | Compound | DC50 (IRAK4) | bioavailability [1]
17 | COc1cc2nn([C@H]3CC[C@H](CN4CC[C@@H](c5cccc6c(C7CCC(=O)NC7=O)nn(C)c56)[C@H](F)C4)CC3)cc2cc1NC(=O)c1cncc(C#N)c1 (single isomer, unassigned) [I-263] | < 10 nM | ≤ 5%
18 | COc1cc2nn([C@H]3CC[C@H](CN4CC[C@H](c5cccc6c(C7CCC(=O)NC7=O)nn(C)c56)[C@@H](F)C4)CC3)cc2cc1NC(=O)c1cncc(C#N)c1 (single isomer, unassigned) [I-264] | < 10 nM | ≤ 5%
19 | COc1cc2nn([C@H]3CC[C@H](CN4CC[C@H](c5cccc6c5c(C)nn6C5CCC(=O)NC5=O)[C@@H](F)C4)CC3)cc2cc1NC(=O)c1cncc(C#N)c1 (single isomer, unassigned) [I-266] | < 10 nM | ≤ 5%
20 | COc1cc2nc([C@H]3CC[C@H](CN4CC[C@@H](c5cccc6c5n(C)c(=O)n6C5CCC(=O)NC5=O)C(F)(F)C4)CC3)sc2cc1NC(=O)c1cncc(C#N)c1 (single isomer, unassigned) [I-273] | > 200 nM | ≤ 5%
21 | CN(C[C@H]1CC[C@H](n2cc(NC(=O)c3cnn4cccnc34)c(C(F)F)n2)CC1)[C@@H]1CCN(c2cccc3c2n(C)c(=O)n3C2CCC(=O)NC2=O)C[C@H]1F (single isomer, unassigned) [I-279] | < 10 nM | ≥ 5%
22 | CN(C[C@H]1CC[C@H](n2cc(NC(=O)c3cnn4cccnc34)c(C(F)F)n2)CC1)[C@H]1CCN(c2cccc3c2n(C)c(=O)n3C2CCC(=O)NC2=O)C[C@@H]1F (single isomer, unassigned) [I-280] | < 10 nM | ≥ 5%
23 | CN(C[C@H]1CC[C@H](n2cc(NC(=O)c3cnn4cccnc34)c(C(F)F)n2)CC1)[C@@H]1CCN(c2cccc3c2n(C)c(=O)n3C2CCC(=O)NC2=O)C[C@@H]1F (single isomer, unassigned) [I-281] | < 10 nM | ≥ 5%
24 | CN(C[C@H]1CC[C@H](c2cn3cc(NC(=O)c4cncc(C(F)(F)F)n4)ccc3n2)CC1)[C@@H]1CCN(c2cccc3c2n(C)c(=O)n3C2CCC(=O)NC2=O)C[C@H]1F (single isomer, unassigned) [I-293] | 10 to 100 nM | ≤ 5%
25 | CN(C[C@H]1CC[C@H](c2cn3cc(NC(=O)c4cncc(C(F)(F)F)n4)ccc3n2)CC1)[C@H]1CCN(c2cccc3c2n(C)c(=O)n3C2CCC(=O)NC2=O)C[C@@H]1F (single isomer, unassigned) [I-294] | < 10 nM | ≤ 5%
26 | CN(C[C@H]1CC[C@H](c2nc3cc(C(C)(C)O)c(NC(=O)c4cncc(C(F)(F)F)n4)cc3o2)CC1)[C@@H]1CCN(c2cccc3c2n(C)c(=O)n3C2CCC(=O)NC2=O)C[C@H]1F (single isomer, unassigned) [I-297] | 10 to 100 nM | ≥ 5%
27 | COc1cn2nc([C@H]3CC[C@H](CN(C)[C@@H]4CCN(c5cccc6c5n(C)c(=O)n6C5CCC(=O)NC5=O)C[C@@H]4F)CC3)cc2cc1NC(=O)c1cncc(C(F)(F)F)n1 (single isomer, unassigned) [I-302] | < 10 nM | ≤ 5%
28 | Cn1c(=O)n(C2CCC(=O)NC2=O)c2cccc(C#CCN3CCN(C[C@H]4CC[C@H](n5cc(NC(=O)c6cnn7ccc(N8C[C@H]9C[C@@H]8CO9)nc67)c(C(F)F)n5)CC4)C[C@H]3C(F)(F)F)c21 (single isomer, unassigned) [I-304] | 10 to 100 nM | ≥ 5%
29 | CN(C[C@H]1CC[C@H](c2nc3cc(C(C)(C)O)c(NC(=O)c4cncc(C(F)(F)F)n4)cc3s2)CC1)[C@@H]1CCN(c2cccc3c2n(C)c(=O)n3C2CCC(=O)NC2=O)C[C@@H]1F (single isomer, unassigned) [I-309] | < 10 nM | ≥ 5%
30 | Cn1c(=O)n(C2CCC(=O)NC2=O)c2cccc(N3CCN(C[C@H]4CC[C@H](n5cc6cc(NC(=O)c7cncc(C(F)(F)F)n7)ccc6n5)CC4)C[C@@H]3C(F)(F)F)c21 (single isomer, unassigned) [I-313] | < 10 nM | ≥ 5%
31 | COc1cc2nc([C@H]3CC[C@H](CN(C)[C@@H]4CCN(c5cccc6c5n(C)c(=O)n6C5CCC(=O)NC5=O)C[C@@H]4F)CC3)cn2cc1NC(=O)c1cncc(C(F)(F)F)n1 (single isomer, unassigned) [I-319] | < 10 nM | ≤ 5%
